The target of one assay is T1, PgpB (Escherichia coli, UniProt P0A924).
T1 construct: made in house
Description: C55-PP phosphatase assay of PgpB. The class given is biochemical, E. coli. As to conditions: 100 µM compound; data not shown. The protocol: C43(DE3) cells carrying pTrcBac30 plasmid were used for the expression of N-terminally His6-tagged BacA (His6-BacA) protein from E. coli. Cells were grown in 2YT-ampicillin at 37 °C and when the OD600 reached 0.9, the temperature of the culture was decreased to 22 °C and protein expression was induced by addition of 1 mM IPTG. Incubation was continued overnight at 22 °C and bacteria were harvested in the cold and washed in a buffer containing 20 mM Tris-HCl, pH 7.4, 0.4 M NaCl, 10% glycerol and 10 mM β-mercaptoethanol (buffer A). The cells were disrupted by three successive passages through a French press and the suspension was centrifuged at 200,000× g, 4 °C for 45 min. The pellet of membranes was washed with buffer A. The membranes were resuspended in buffer A supplemented by 2% DDM detergent. […] Fractions containing the BacA protein were subjected to an additional gel-filtration purification step on Superdex 200 (HiLoadTM 16/600 SuperdexTM 200) equilibrated in 0.1% DDM-containing buffer A. 1-ml fractions were collected and analysed by SDS-PAGE. […]
The C55-PP phosphatase activity of BacA was assessed by measuring the percentage of transformation of [^14C]C55-PP into [^14C]C55-P upon incubation with BacA by TLC analysis. […] The radioactive spots were located and quantified with a radioactivity scanner. […] The C55-PP phosphatase activity of PgpB was measured as described for BacA.

In assay [1] the test system is BWbacA-singleΔtolC strain. The assay is described as follows: Growth inhibition / MIC in 2YT liquid medium. The settings on record: for MIC: BWbacA-singleΔtolC strain; for class of antibacterial activity (Figure S2): BWΔtolC and BWbacA-singleΔtolC strains, 250 and 500 µM; for growth inhibition: TolC/PAP2-depleted BWbacA-singleΔtolC, 500 µM compound. It counts as cell-based, E. coli. The protocol: (§1) Bacteria were grown in 2YT broth supplemented, when required, with ampicillin or kanamycin at concentrations of 100 and 50 µg/ml, respectively. The BWΔtolC strain was obtained from the Keio collection. The BWΔbacAΔtolC and BWbacA-singleΔtolC were generated by P1 transduction of the ΔtolC::Kan^R cassette from BWΔtolC strain to BWΔbacA and DMEG9 recipient strains, respectively. The strains S. aureus RN4220 and S. pneumoniae R6 were used to evaluate the antibacterial activity of certain compounds. S. aureus was grown on BHI (Brain Heart Infusion) broth and S. pneumoniae was grown on Colombia broth supplemented with 5% horse blood.
(§2) For compounds displaying inhibitory activity on BacA catalysis, their antibacterial activity was tested on different E. coli strains by monitoring bacterial growth in the presence of compounds (125, 250 and 500 µM). One colony was cultured in 10 ml of 2YT liquid medium and incubated at 37℃ for 6 h. The absorbance of the culture at 600 nm (A600) was measured to prepare a bacterial suspension in 2YT liquid medium at 15.10^6 CFU/ml (A600 = 1 corresponds to 3.10^8 CFU/ml). The bacterial suspension (200-µl) was then grown on 96-well plates in the presence or not of compounds (5-µl), which was added from a stock solution prepared in DMSO. Negative controls were then performed by growing the cells without inhibitors in 2YT medium and in 2YT medium supplemented with 2.5% of DMSO. The plates were incubated at 37℃ overnight with A600 measurements every 10 min using a Tecan F200 PRO microplate reader (iControl software).

The subject of another assay is S. pneumoniae R6. Description: Double-disc diffusion test with bacitracin. The class given is cell-based. The protocol:
To evaluate the antibacterial activity of the compounds per se or in combination with bacitracin, against S. aureus RN4220 and S. pneumoniae R6 strains, disc diffusion method was used according to the CLSI guidelines. Bacterial suspensions equivalent to 10^8 CFU/ml were prepared in 5 ml BHI broth. A BHI-agar plate (for S. aureus) or Colombia-agar plate supplemented with 5% Horse Blood (for S. pneumoniae) were then flooded with a bacterial suspension for 1 min to allow the bacteria to sediment before removing the excess of medium. The commercial discs loaded with 130 µg of bacitracin (Biorad) was positioned on top of the bacterial lawn at distances of 10 mm (center to center) from another sterile and blank disc, which was then loaded with 7 µL of a compound solution (50 µg). The plates were incubated at 37 °C for 24 h and the diameter of the growth inhibition zone was measured and a photo of the plates was acquired using a ChemiDoc™ MP System.
Figure S3. Test of antibacterial activity of BacA inhibitors against S. aureus RN4220 (A) and S. pneumonia R6 (B) strains. Bacitracin (130 µg)- and compound (50 µg)-loaded discs were positioned at 10 mm of distance on top of a bacterial lawn. The plates were incubated overnight at 37 °C. These images are representative of three independent tests. […]

A further assay has as its system BWΔtolC strain. The assay is described as follows: Growth inhibition in 2YT liquid medium (off-target activity). As to conditions: for growth inhibition: TolC-depleted BWΔtolC; for Off-target activity: antibacterial activity against BWΔtolC. It counts as cell-based, E. coli. The protocol:
as §1, §2

The subject of assay [2] is DMEG9 strain, alias BWbacA-single. Description: Growth inhibition in 2YT liquid medium. It counts as cell-based, E. coli. As to conditions: PAP2-depleted DMEG9; 500 µM compound. Here is the method:
as §2
(§3) Two compounds, 3 and 5, were assessed for antibacterial activity using the broth microdilution method against the E. coli BW25113 wild type strain. […] Considering the plurality of C55-PP phosphatases in E. coli, the inhibition of BacA may not induce growth inhibition as long as the PAP2 enzymes (PgpB, YbjG, and LpxT) are functional. Consequently, compounds 3 and 5 were tested against a BW25113 variant in which the PAP2 enzymes were depleted (DMEG9 strain, alias BWbacA-single). […]

For assay [3], the system named is E. coli BW25113 wild type strain. The assay is described as follows: Growth inhibition in 2YT liquid medium. The class given is cell-based. As to conditions: 500 µM compound. Here is the method: as §2, §3
Assay [4] deals with BWbacA-singleΔtolC strain carrying the empty vector (pTRCH30). Description: Growth inhibition, control strain carrying the empty vector. It counts as cell-based, E. coli. As to conditions: 500 µM compound. Here is the method:
as §2
(§4) To further assess the specificity of compounds 3 and 5 with respect to BacA, they were tested against the strain depleted of both TolC and PAP2 but overexpressing an ectopic copy of the bacA gene on a plasmid.

A further assay has as its system BWΔbacAΔtolC strain. The assay is described as follows: Growth inhibition in 2YT liquid medium. The settings on record: BacA and TolC depleted; 500 µM compound. The class given is cell-based, E. coli. The protocol:
as §1
For compounds displaying inhibitory activity on BacA catalysis, their antibacterial activity was tested on different E. coli strains by monitoring bacterial growth in the presence of compounds (125, 250 and 500 µM). One colony was cultured in 10 ml of 2YT liquid medium and incubated at 37℃ for 6 h. The absorbance of the culture at 600 nm (A600) was measured to prepare a bacterial suspension in 2YT liquid medium at 15.10^6 CFU/ml (A600 = 1 corresponds to 3.10^8 CFU/ml). […] The plates were incubated at 37℃ overnight with A600 measurements every 10 min using a Tecan F200 PRO microplate reader (iControl software). […]

For assay [5], the system named is BWbacA-singleΔtolC strain overexpressing an ectopic copy of the bacA gene on a plasmid. The assay is described as follows: Growth inhibition upon bacA overexpression. It counts as cell-based, E. coli. As to conditions: bacA overexpressed in trans; 500 µM compound. The protocol: as §2, §4

“Also recorded” adds a separate entry of the source.

T1 sequence (P0A924 whole entry): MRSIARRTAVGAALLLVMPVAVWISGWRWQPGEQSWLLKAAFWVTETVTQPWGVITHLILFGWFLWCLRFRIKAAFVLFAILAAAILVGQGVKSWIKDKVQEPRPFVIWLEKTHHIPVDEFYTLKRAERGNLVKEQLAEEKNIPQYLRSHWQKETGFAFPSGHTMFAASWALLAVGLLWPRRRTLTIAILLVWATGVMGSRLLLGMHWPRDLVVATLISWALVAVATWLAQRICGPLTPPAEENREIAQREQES

As a reminder, the MIC is the lowest concentration found to suppress growth. Lower therefore signals greater potency. In the case of `O=C(O)c1csc(S(=O)(=O)Nc2ccc(N3CCCC3)c(F)c2)c1` [Compound 4], the “inhibition of PgpB” value on PgpB is on record as “not inhibited”. Besides, the minimal inhibitory concentration (MIC) was determined as 92 µg/mL in assay [1]; 250 µM in assay [1] (125, 250 and 500 µM tested). The “class of antibacterial activity (Figure S2)” value in [1] is recorded as “antibacterial activity on both strains”. For the same molecule, the growth inhibition entry in assay [1] is “total growth inhibition”; in the assay on BWΔtolC strain (250 µM compound), “no effect”; in the assay on BWΔtolC strain (500 µM compound) it was “moderate inhibition”. Besides, the “antibacterial activity per se (inhibition zone around compound-loaded disc)” value with S. pneumoniae R6 (50 µg compound disc) is recorded as “no inhibition zone”. Further, the “inhibition zone of bacitracin in proximity of the compound” value in the assay with S. pneumoniae R6 (130 µg bacitracin disc, 50 µg compound disc at 10 mm) came out at 10 mm. Also, in the assay with BWΔtolC strain, the Off-target activity result is “Yes”.

Take `O=C(O)c1csc(S(=O)(=O)Nc2ccc3sccc3c2)c1` [Compound 3]: the growth inhibition entry in [2] is given as “no growth inhibition”; in assay [1] it was “complete growth inhibition; also recorded: total growth inhibition”; in assay [3], “No growth inhibition”; in assay [4], “total growth inhibition”; in the assay with BWΔtolC strain (500 µM compound), “moderate inhibition; also recorded: significant growth inhibition”. For the same molecule, on PgpB, the “inhibition of PgpB” value was “not inhibited”. For the same molecule, the MIC in assay [1] turned out to be 169 µg/mL; in [1] (125, 250 and 500 µM tested), 500 µM. In addition, the “class of antibacterial activity (Figure S2)” value in [1] is “antibacterial activity on both strains”. Besides, the “growth inhibition (BacA-independent activity)” value in the assay with BWΔbacAΔtolC strain is reported as “moderate inhibition; also recorded: significant, although moderate, BacA-independent activity”. Also, in [5], the “growth inhibition upon bacA overexpression” value was “partially alleviated growth inhibition; also recorded: susceptibility was decreased at the level observed with the strain depleted of TolC alone”. Further, in the assay with BWΔtolC strain (BWΔtolC, 500 µM compound), the “increase of the doubling time of cells” value is 3 fold. For the same molecule, in the assay on BWΔtolC strain, the Off-target activity entry is listed as “Yes”.
